# Publication PMC5554137, “Evaluation of novel factor Xa inhibitors from Oxya chinensis sinuosa with anti-platelet aggregation activity” (Scientific Reports, 2017)
# Assays:
# FXa = molecular target: T1, FXa (Homo sapiens, UniProt P00742); experiment: Chromogenic substrate assay, Ki determination, Factor Xa; type: biochemical
# T1 construct: purchased Haematologic Technologies (Essex Junction, VT, USA)
# Procedure: (§1) The inhibitor (I) constants (Ki) were determined for the inhibition of a series of human enzymes (FXa, thrombin, trypsin, plasmin, protein Ca, streptokinase, tPA, and urokinase) by each compound. Chromogenic substrate assays were performed using a Labsystems IEMS (Cergy Pontoise, France) microtiter plate reader. In each assay, the compound was tested at a minimum of seven concentrations in duplicate to obtain an inhibition curve. Assays were performed according to the following general procedure. In a 96-well microtiter plate, 25 μL of compound, inhibitor solution or buffer was added to 50 μL of substrate. A volume of 25 μL of enzyme solution was added just before the plate was placed in the microtiter plate reader for 1 h at 37 °C. The hydrolysis of the substrate yields p-nitroaniline, which was continuously monitored spectrophotometrically at 405 nm. Data were collected and the initial rate of substrate hydrolysis [Vo (mOD/minute)] was calculated. Following Michaelis-Menten kinetics, the affinity of the enzyme for the substrate, in the absence of the inhibitor (Km) and in the presence of an inhibitor (Kp), was determined to be the negative inverse x-intercept of Lineweaver–Burk plots. The dissociation constant for inhibition (Ki) was calculated using the following equation: Ki = (Km·[I])/(Kp − Km) as described by Williams and Morrison[40].
# Plasmin = Plasmin (Homo sapiens, UniProt P00747); experiment: Chromogenic substrate assay, Ki determination, Plasmin; type: biochemical
# Chain of Plasmin (P00747 581-810 limits assumed): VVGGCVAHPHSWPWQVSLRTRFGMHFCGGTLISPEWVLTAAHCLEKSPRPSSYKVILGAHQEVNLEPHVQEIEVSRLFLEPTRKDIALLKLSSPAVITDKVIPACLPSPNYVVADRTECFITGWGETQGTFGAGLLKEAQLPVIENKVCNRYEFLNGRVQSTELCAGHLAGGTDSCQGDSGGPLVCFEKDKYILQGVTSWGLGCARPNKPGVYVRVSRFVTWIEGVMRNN
# Chain of Plasmin (P00747 97-580 limits assumed): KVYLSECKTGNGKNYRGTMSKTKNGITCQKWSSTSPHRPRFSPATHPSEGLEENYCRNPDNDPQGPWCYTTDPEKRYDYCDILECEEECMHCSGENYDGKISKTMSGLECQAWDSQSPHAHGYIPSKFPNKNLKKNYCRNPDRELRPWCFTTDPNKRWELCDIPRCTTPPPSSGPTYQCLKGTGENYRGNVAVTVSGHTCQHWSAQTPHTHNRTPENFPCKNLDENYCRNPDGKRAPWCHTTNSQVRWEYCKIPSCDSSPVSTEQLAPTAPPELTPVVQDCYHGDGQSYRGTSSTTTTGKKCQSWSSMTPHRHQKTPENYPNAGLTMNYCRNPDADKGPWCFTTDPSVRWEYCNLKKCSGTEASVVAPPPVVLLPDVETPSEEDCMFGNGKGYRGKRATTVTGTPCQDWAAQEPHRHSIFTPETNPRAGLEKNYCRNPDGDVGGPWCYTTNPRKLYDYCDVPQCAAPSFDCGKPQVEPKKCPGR
# Procedure: as §1
# Protein Ca = Protein Ca (Homo sapiens, UniProt P04070); experiment: Chromogenic substrate assay, Ki determination, Protein Ca; type: biochemical
# Chain of Protein Ca (P04070 212-461 limits assumed): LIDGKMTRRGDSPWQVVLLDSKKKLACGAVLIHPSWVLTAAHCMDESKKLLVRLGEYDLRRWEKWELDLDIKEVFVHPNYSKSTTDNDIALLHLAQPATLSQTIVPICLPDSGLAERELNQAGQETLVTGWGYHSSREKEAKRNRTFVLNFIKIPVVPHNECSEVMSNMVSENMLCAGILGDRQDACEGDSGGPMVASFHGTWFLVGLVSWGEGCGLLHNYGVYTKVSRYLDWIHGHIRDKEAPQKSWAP
# Chain of Protein Ca (P04070 43-197 limits assumed): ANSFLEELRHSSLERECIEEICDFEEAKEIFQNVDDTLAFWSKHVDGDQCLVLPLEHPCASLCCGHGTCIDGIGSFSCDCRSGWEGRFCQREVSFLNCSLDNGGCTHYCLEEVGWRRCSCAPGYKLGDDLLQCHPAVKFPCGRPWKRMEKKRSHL
# Procedure: as §1
# tPA = tPA (Homo sapiens, UniProt P00750); experiment: Chromogenic substrate assay, Ki determination, tPA; type: biochemical
# Chain of tPA (P00750 36-562): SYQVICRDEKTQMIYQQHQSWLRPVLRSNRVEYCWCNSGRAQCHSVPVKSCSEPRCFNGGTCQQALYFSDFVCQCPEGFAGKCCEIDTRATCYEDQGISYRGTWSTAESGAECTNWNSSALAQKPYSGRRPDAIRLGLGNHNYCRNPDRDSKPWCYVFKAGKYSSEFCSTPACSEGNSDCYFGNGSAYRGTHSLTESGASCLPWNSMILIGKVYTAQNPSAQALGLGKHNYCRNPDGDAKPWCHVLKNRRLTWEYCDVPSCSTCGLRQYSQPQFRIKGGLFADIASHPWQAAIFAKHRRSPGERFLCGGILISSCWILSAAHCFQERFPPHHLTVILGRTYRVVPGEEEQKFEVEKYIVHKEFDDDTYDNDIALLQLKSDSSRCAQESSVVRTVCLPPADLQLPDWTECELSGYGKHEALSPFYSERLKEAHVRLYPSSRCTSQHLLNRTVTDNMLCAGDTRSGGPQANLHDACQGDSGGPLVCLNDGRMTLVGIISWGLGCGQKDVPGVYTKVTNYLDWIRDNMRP
# Procedure: as §1
# Urokinase = Urokinase (Homo sapiens, UniProt P00749); experiment: Chromogenic substrate assay, Ki determination, Urokinase; type: biochemical
# Procedure: as §1
# HUVECs = experiment: Production of factor Xa on the surface of TNF-α-stimulated HUVECs; type: cell-based, human; settings: 10 min pre-incubation
# Procedure: Figure 6 Effects of compounds 1–4 on inhibition and production of FXa. […] The plots represent means of three independent measurements. (E) Human umbilical vein endothelial cells (HUVECs) were pre-incubated with the indicated concentration of each compound for 10 min. HUVECs stimulated with tumor necrosis factor-α (TNF-α, 10 ng/mL for 6 h) were incubated with FVIIa (10 nM) and FX (175 nM) in the absence or presence of anti-TF IgG (25 µg/mL). FXa production was determined as described in the “ Supplementary Materials and Methods” section. D = 0.2% DMSO used as the vehicle control. (F) Inhibition of FXa by each compound (5 μM) with or without TFPI (2 nM) was monitored using a chromogenic assay. ^* p < 0.05 vs. TNF-α alone (E) or each compound (F) alone, analyzed via one-way ANOVA, followed by Tukey multiple comparison testing.
# Production of FXa by FVIIa is dependent on tissue factor (TF) expression in tumor necrosis factor-α (TNF-α)-stimulated HUVECs[22]. Thus, we investigated the effects of compounds 1–4 on the production of FXa by FVIIa. HUVECs were stimulated with TNF-α to induce TF expression, causing an 11.9-fold increase in the rate of FX production by FVIIa (109.4 ± 9.2 nM) over that of non-stimulated HUVECs (9.2 ± 0.8 nM). […] We next determined whether each compound compete with tissue factor pathway inhibitor (TFPI) in the inhibition of FXa. […]
# T1 sequence (P00742 235-488 limits assumed): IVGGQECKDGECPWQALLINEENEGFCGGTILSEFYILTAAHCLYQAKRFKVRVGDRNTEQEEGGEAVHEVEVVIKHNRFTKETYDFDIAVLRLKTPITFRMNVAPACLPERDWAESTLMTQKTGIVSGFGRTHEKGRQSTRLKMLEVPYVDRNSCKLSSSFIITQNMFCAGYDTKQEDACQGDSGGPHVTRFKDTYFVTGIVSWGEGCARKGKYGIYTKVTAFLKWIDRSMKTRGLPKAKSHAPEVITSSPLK
# T1 sequence (P00742 41-179 limits assumed): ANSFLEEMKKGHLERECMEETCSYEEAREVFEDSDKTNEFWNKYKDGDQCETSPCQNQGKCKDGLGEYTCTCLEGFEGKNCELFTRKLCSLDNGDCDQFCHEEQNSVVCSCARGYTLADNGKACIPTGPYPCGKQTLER
smiles,measurement,setting,value
"CC(=O)NCCc1ccc2c(c1)O[C@H](c1ccc(O)c(O)c1)[C@H](NC(C)=O)O2 [Compound 1, (2 R,3 R)-2-(3′,4′-dihydroxyphenyl)-3-acetylamino-7-(N-acetyl-2″-aminoethyl)-1,4-benzodioxane]","Ratio = Ki enzyme/Ki Factor Xa, Factor Xa",FXa,1
same,Ki,"FXa; substrate S-2765 (Table 3), mean ± SD (n = 5)",2.96 ± 0.25 µM
same,"Ratio = Ki enzyme/Ki Factor Xa, Plasmin",Plasmin,>100
same,Ki,Plasmin; substrate S-2251,> 300 µM
same,"Ratio = Ki enzyme/Ki Factor Xa, Protein Ca",Protein Ca,>100
same,Ki,Protein Ca; substrate S-2366,> 300 µM
same,"Ratio = Ki enzyme/Ki Factor Xa, tPA",tPA,>100
same,Ki,tPA; substrate S-2228,> 300 µM
same,"Ratio = Ki enzyme/Ki Factor Xa, Urokinase",Urokinase,>100
same,Ki,Urokinase; substrate S-2444,> 300 µM
same,inhibition of FXa production (generation) by FVIIa in HUVECs,HUVECs,strongest inhibition
